Measured values as given in ChEMBL document CHEMBL1131815, “Derivatives of (R)-2-amino-5-methoxytetralin: antagonists and inverse agonists at the dopamine D2A receptor” (Bioorg Med Chem Lett, 1999).

What was measured:
D(2) dopamine receptor [1] = target: T1, D(2) dopamine receptor (Homo sapiens, UniProt P14416); experiment: Displacement of [3H]quinpirole from human dopamine D2A receptors expressed in LtK cells; format: cell-based
D(2) dopamine receptor [2] = target: T1, D(2) dopamine receptor; experiment: Displacement of [3H]raclopride from human dopamine D2A receptors expressed in LtK cells; format: cell-based
D(2) dopamine receptor [3] = target: T1, D(2) dopamine receptor

T1 sequence (P14416 whole entry): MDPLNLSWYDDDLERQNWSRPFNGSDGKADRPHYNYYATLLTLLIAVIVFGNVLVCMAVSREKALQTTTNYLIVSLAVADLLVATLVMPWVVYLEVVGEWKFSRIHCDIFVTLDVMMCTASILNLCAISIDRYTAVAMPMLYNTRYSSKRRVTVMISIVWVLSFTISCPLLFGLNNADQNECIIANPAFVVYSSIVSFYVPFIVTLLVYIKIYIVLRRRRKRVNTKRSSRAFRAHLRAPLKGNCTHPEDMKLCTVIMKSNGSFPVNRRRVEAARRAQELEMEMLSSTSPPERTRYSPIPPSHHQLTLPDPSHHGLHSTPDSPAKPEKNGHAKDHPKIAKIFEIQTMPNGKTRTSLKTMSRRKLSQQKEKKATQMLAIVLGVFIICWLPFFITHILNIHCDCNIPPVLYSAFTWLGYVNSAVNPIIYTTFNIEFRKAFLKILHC

Ki (D(2) dopamine receptor [1])	Ki (D(2) dopamine receptor [2])	nH (D(2) dopamine receptor [3])	SMILES
339 nM	152 nM	0.9	CCCN(Cc1cccs1)[C@@H]1CCc2c(cccc2OC)C1
1310 nM	1010 nM	0.83	COc1cccc2c1CC[C@@H](NCc1ccccc1)C2
> 5000 nM	> 5000 nM		COc1cccc2c1CC[C@@H](N(Cc1ccccc1)Cc1ccccc1)C2
215 nM	59.2 nM	0.9	CCCN(Cc1ccc([N+](=O)[O-])cc1)[C@@H]1CCc2c(cccc2OC)C1
		0.65	NCCc1ccc(O)c(O)c1
		0.86	CCCN(Cc1ccccc1)[C@@H]1CCc2c(F)cccc2C1
69.7 nM	43.8 nM	0.9	CCCN(Cc1ccc(F)cc1)[C@@H]1CCc2c(cccc2OC)C1
118 nM	125 nM	0.83	CCCN(Cc1ccco1)[C@@H]1CCc2c(cccc2OC)C1

SMILES	Ki (D(2) dopamine receptor [1])	Ki (D(2) dopamine receptor [2])	nH (D(2) dopamine receptor [3])
CCCN(Cc1ccccc1)[C@@H]1CCc2c(cccc2OC)C1	75 nM	65.6 nM	1.05
CCCN(CCC)[C@@H]1CCc2c(cccc2OC)C1	6.35 nM	46 nM	1.06
CCCN(Cc1ccc(OC)cc1)[C@@H]1CCc2c(cccc2OC)C1	64.1 nM	22 nM	0.94
CCCN(CCC)[C@@H]1CCc2c(F)cccc2C1			0.89
CCCN[C@@H]1CCc2c(cccc2OC)C1	82.3 nM	114 nM	1.06
